Laboratory results: article PMC3351444, “Molecular Evolution of a Peptide GPCR Ligand Driven by Artificial Neural Networks” (PLoS ONE, 2012)
Read-outs that look alike come from different tables or passages of the source. Square brackets hold non-standard residues; d marks the D form. Ends that are not written are not given here. Peptide text beside a SMILES is read from it.

Experiments:
human CMKLR1 = molecular target: T1, human CMKLR1 (Homo sapiens, UniProt Q99788); assay: Ca2+ mobilization (CellLux imaging) agonist assay in HEK293A cells expressing CMKLR1 and Gα15; format: cell-based
T1 construct: host or cells: HEK293A (Invitrogen), stably expressing human Gα15
T1 sequence (Q99788 1-373): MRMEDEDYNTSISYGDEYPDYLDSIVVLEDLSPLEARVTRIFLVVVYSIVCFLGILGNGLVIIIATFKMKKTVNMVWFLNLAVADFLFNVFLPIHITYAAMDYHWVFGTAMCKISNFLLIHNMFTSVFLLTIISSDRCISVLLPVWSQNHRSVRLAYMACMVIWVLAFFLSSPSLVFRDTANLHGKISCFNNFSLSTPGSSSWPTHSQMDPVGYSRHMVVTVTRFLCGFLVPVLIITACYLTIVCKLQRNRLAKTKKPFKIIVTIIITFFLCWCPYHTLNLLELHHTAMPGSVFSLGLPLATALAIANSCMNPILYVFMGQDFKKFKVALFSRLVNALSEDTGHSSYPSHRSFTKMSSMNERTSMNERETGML
Procedure, shortened: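 HEK293A cells co-expressing CMKLR1 and Gα15 were loaded with FLUO4-AM, and peptides were added robotically in C1 buffer (HEPES pH 7.4, 2 mM CaCl2) with 0.1% BSA. Fluorescence changes were read in duplicate wells, buffer-subtracted and normalized to background. EC50 came from amplitude–concentration plots.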

[1] = In vitro peptide stability in human serum (RP-HPLC); details: for half-life at 50 µg/mL: human, human serum, 25% (v/v) in RPMI; for t1/2: metabolic stability in human serum
[2] = Ca2+ mobilization, CMKLR1, decimal comma
[3] = Ca2+ mobilization, CMKLR1, decimal comma, NR where no EC50 is given, read-out: EC50
[4] = intracellular calcium mobilization, HEK293 cells expressing CMKLR1, mean of three independent experiments ± SD, read-out: activity: EC50 ±SD

| Compound | max response (human CMKLR1; [2]) | EC50 (human CMKLR1; [3]) | half-life at 50 µg/mL [1] | EC50 (human CMKLR1; [4]) | t1/2 [1] | max response (human CMKLR1) |
| --- | --- | --- | --- | --- | --- | --- |
| CC(C)C[C@H](NC(=O)[C@H](Cc1ccc(O)cc1)NC(=O)[C@H](CCC(N)=O)NC(=O)[C@@H](Cc1ccccc1)NC(=O)[C@@H](CC(=O)O)NC(=O)[C@@H]1CCCN1C(=O)[C@H](CC(C)C)NC(=O)[C@@H](N)Cc1ccc(O)cc1)C(=O)N1CCC[C@H]1C(=O)O [compound 148] (H-YLP[dD][dF]QYLP-OH; N-terminus assumed) | 1,74 DF/F0 | 207 nM | 32 min | – | – | – |
| CC(C)C[C@H](NC(=O)[C@@H]1CCCN1)C(=O)N[C@H](CCC(N)=O)C(=O)N[C@@H](Cc1ccc(O)cc1)C(=O)N1CCC[C@H]1C(=O)N[C@@H](Cc1ccc(O)cc1)C(=O)N[C@H](CS)C(=O)N[C@@H](CC(C)C)C(=O)N[C@H](Cc1ccccc1)C(=O)O [compound 149] (H-PL[dQ]YPY[dC]L[dF]-OH; N-terminus assumed) | 1,51 DF/F0 | 271 nM | 30 min | – | – | – |
| CC(C)C[C@H](NC(=O)[C@@H](N)Cc1ccc(O)cc1)C(=O)N1CCC[C@H]1C(=O)N[C@H](Cc1ccc(O)cc1)C(=O)N[C@H](CCC(N)=O)C(=O)N[C@@H](Cc1ccc(O)cc1)C(=O)N[C@@H](C)C(=O)N[C@@H](CCC(N)=O)C(=O)N[C@H](Cc1ccccc1)C(=O)O [compound 150] (H-YLP[dY][dQ]YAQ[dF]-OH; N-terminus assumed) | 1,35 DF/F0 | 284 nM | 62 min | – | – | – |
| CC(C)C[C@H](NC(=O)[C@@H](N)Cc1ccc(O)cc1)C(=O)N1CCC[C@H]1C(=O)N[C@H](CC(C)C)C(=O)NCC(=O)N[C@@H](Cc1ccc(O)cc1)C(=O)N[C@@H](C)C(=O)N1CCC[C@@H]1C(=O)N[C@H](Cc1ccccc1)C(=O)O [compound 151] (H-YLP[dL]GYA[dP][dF]-OH; N-terminus assumed) | 1,47 DF/F0 | 298 nM | 91 min | – | – | – |
| CC(C)C[C@H](NC(=O)[C@@H]1CCCN1C(=O)[C@@H]1CCCN1)C(=O)N[C@H](Cc1c[nH]c2ccccc12)C(=O)N[C@@H](CCC(N)=O)C(=O)N[C@@H](Cc1ccc(O)cc1)C(=O)N[C@@H](C)C(=O)N[C@H](CC(=O)O)C(=O)N[C@H](CO)C(=O)O [compound 153] (H-PPL[dW]QYA[dD][dS]-OH; N-terminus assumed) | 1,31 DF/F0 | 313 nM | 86 min | – | – | – |
| CC(C)C[C@H](NC(=O)[C@H](N)Cc1ccccc1)C(=O)N1CCC[C@H]1C(=O)NCC(=O)N[C@@H](CCC(N)=O)C(=O)N[C@@H](Cc1ccc(O)cc1)C(=O)N[C@@H](C)C(=O)N[C@@H](Cc1ccccc1)C(=O)N[C@H](Cc1ccccc1)C(=O)O [fLPGQYAFf] (H-[dF]LPGQYAF[dF]-OH; N-terminus assumed) | – | – | 1160 ± 41 min | 8.2 ± 3.96 nM | – | – |
| CC(C)C[C@H](NC(=O)[C@H](N)Cc1ccc(O)cc1)C(=O)N1CCC[C@H]1C(=O)N[C@H](CO)C(=O)N[C@@H](CCC(N)=O)C(=O)N[C@@H](Cc1ccc(O)cc1)C(=O)N[C@@H](C)C(=O)N[C@@H](Cc1ccccc1)C(=O)N[C@H](CO)C(=O)O [yLPsQYAFs] (H-[dY]LP[dS]QYAF[dS]-OH; N-terminus assumed) | – | – | 1410 ± 85 min | 2.9 ± 1.34 nM | – | – |
| FLFGFQFAY-OH [compound 109] | 1,7 DF/F0 | 1650 nM | 16 min | – | – | – |
| FLPGALGFF-OH [compound 60] | 0,69 DF/F0 | 406 nM | 19 min | – | – | – |
| FLPGQFLPG-OH [compound 63] | 0,81 DF/F0 | 554 nM | 46 min | – | – | – |
| FLPGQPYFL-OH [compound 65] | 0,91 DF/F0 | 713 nM | 32 min | – | – | – |
| FLPGQYAFK-OH [compound 64] | 0,93 DF/F0 | 567 nM | 26 min | – | – | – |
| FLPGQYAFL-OH [compound 46] | 1,06 DF/F0 | 13.5 nM | 28 min | – | – | – |
| FLPGQYAFS-OH | – | – | 28 ± 1 min | 2.75 ± 0.14 nM | – | – |
| FLPGQYAFS-OH [compound 34] | 0,68 DF/F0 | – | – | – | 28 min | – |
| FLPPQFAFF-OH [compound 73] | 0,77 DF/F0 | 3000 nM | 20 min | – | – | – |
| LLPGLFLKL-OH [compound 74] | 0,85 DF/F0 | 5120 nM | 39 min | – | – | – |

| Compound | max response (human CMKLR1; [2]) | EC50 (human CMKLR1; [3]) | half-life at 50 µg/mL [1] | EC50 (human CMKLR1; [4]) | t1/2 [1] | max response (human CMKLR1) |
| --- | --- | --- | --- | --- | --- | --- |
| PGPGQFAFF-OH [compound 59] | 0,9 DF/F0 | 335 nM | 80 min | – | – | – |
| PLPGQFQFK-OH [compound 70] | 0,43 DF/F0 | 1920 nM | 27 min | – | – | – |
| PLPGQQAFF-OH [compound 79] | 0,6 DF/F0 | – | 84 min | – | – | – |
| YFLGQFAFK-OH [compound 76] | 0,65 DF/F0 | 5830 nM | 16 min | – | – | – |
| YFPGQFAFG-OH [compound 29] | – | – | – | – | 13 min | 1,01 DF/F0 |
| YFPGQYAFF-OH [compound 30] | 0,98 DF/F0 | 1.89 nM | 26 min | – | – | – |
| YLPGQFAFL-OH [compound 39] | 1,01 DF/F0 | 5.85 nM | 24 min | – | – | – |
| YLPGQFQFS-OH [compound 44] | 0,76 DF/F0 | 9.54 nM | 15 min | – | – | – |
| YLPGQGAFK-OH [compound 69] | 0,99 DF/F0 | 1870 nM | 22 min | – | – | – |
| YLPGQGAFP-OH [compound 49] | 0,97 DF/F0 | 28.7 nM | 17 min | – | – | – |
| YLPGQYAFL-OH | – | – | 27 ± 4 min | 5.75 ± 2.56 nM | – | – |
| YLPGQYAFL-OH [compound 38] | 1,05 DF/F0 | – | – | – | 27 min | – |
| YLPGQYAFY-OH [compound 48] | 0,92 DF/F0 | 15.6 nM | 16 min | – | – | – |
| YLPGQYLFL-OH [compound 56] | 0,57 DF/F0 | 114 nM | 19 min | – | – | – |
| YLPGYLPGH-OH [compound 77] | 1,04 DF/F0 | 217000 nM | 17 min | – | – | – |
| YPPGQYAFF-OH [compound 68] | 0,94 DF/F0 | 1480 nM | 54 min | – | – | – |
